Columns and labels:
[1] = target: Human CB1 Receptor-1 (hCB1) (Homo sapiens (Human), UniProt P21554); assay: hCB1 Gai cyclic AMP (cAMP) TR-FRET assay, antagonism of EC80 CP55940 with forskolin; type: cell-based; conditions: hCB1 cells, 30 min pre-incubation
Method in brief: (§1)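 Cells expressing hCB1 or hCB1b were preincubated with compound for 30 min at rt, then stimulated with an EC80 concentration of CP55940 plus forskolin for 20 min at 37C. cAMP was measured by TR-FRET using Eu-cAMP and 650-labeled anti-cAMP in lysis buffer, with emission at 620/665 nm. IC50 values are binned by category.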

[2] = target: Human CB1 Receptor-1b (hCB1b) (Homo sapiens (Human), UniProt P21554); assay: hCB1b Gai cyclic AMP (cAMP) TR-FRET assay, antagonism of EC80 CP55940 with forskolin; type: cell-based; conditions: hCB1b cells, 30 min pre-incubation, read-out: CB1b IC50
Method in brief: as §1

[3] = Pharmacokinetics following oral administration in male C57BL/6 mice: brain/plasma ratio; type: in vivo; conditions: single PO 10 mg/kg, compared to rimonabant 10 mg/kg PO
Description: FIG. 2 provides graphs showing the brain/plasma ratio of orally administered Compound 9 (10 mg/kg) in comparison to orally administered rimonabant (10 mg/kg) C57BL/6J in mice, as measured by area under the curve from 0 to 24 hours (AUC0-24) and maximum concentration (Cmax) post administration.
Example 5. Pharmacokinetics of Following Oral Administration in Male C57BL/6 Mice
A study was conducted to compare the brain/plasma ratios of Compound 9 and rimonabant following oral administration in mice.
Fasted overnight with free access to water and fed 4 hr post dosing
PO administration via oral gavage
Group 2: PO, 10 mg/kg, 10 mL/kg
0.5% MC (400 cp) in purified water (1 mg/mL)
Terminal sampling for brain @0.25, 0.5, 1, 2, 4, 8 and 24 hr, 7 time points. (N=3/timepoint, N=21/arm); collect brains after perfusion.

Chain of Human CB1 Receptor-1 (hCB1) (P21554 whole entry): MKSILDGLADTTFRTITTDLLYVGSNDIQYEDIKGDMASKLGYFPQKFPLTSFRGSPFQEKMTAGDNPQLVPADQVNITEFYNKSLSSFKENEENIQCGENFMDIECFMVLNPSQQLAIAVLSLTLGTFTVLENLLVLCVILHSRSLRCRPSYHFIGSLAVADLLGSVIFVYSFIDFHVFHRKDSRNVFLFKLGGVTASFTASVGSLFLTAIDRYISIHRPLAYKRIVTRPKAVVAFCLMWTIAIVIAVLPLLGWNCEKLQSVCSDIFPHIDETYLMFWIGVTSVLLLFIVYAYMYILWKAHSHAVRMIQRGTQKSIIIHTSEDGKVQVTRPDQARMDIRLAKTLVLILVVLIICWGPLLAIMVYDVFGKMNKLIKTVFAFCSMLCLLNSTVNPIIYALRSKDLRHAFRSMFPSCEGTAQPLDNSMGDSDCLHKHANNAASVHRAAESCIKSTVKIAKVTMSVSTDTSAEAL
Chain of Human CB1 Receptor-1b (hCB1b) (P21554 other isoform, or with tags, fused parts or gaps): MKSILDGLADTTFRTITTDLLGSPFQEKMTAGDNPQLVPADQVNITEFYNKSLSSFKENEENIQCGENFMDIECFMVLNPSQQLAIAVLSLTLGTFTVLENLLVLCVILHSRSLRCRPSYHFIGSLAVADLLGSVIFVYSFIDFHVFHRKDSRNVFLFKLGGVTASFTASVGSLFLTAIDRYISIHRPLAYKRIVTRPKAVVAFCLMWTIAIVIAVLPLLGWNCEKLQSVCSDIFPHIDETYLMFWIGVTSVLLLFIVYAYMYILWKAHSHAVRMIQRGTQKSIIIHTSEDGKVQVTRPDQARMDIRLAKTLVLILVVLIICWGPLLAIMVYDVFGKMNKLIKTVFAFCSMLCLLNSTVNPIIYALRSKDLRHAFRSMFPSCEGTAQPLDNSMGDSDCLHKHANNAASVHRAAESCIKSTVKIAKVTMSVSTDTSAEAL

IC50 [1]: < 100 nM
IC50 [2]: < 100 nM
Compound: NS(=O)(=O)CCNC(=NS(=O)(=O)c1ccc(C(F)(F)F)cc1)N1C[C@H](c2ccccc2)C(c2ccc(Cl)cc2)=N1 [Compound 9, (S,E)-3-(4-chlorophenyl)-4-phenyl-N-(2-sulfamoylethyl)-N′-((4-(trifluoromethyl)phenyl)sulfonyl)-4,5-dihydro-1H-pyrazole-1-carboximidamide]
blood-brain-barrier penetration (brain/plasma ratio by AUC0-24 and Cmax) [3]: substantially reduced blood-brain-barrier penetration as compared to rimonabant

Source: patent US20250248973A1, “CANNABINOID RECEPTOR 1 ANTAGONISTS/INVERSE AGONISTS AND USES THEREOF” (Corbus Pharmaceuticals, Inc., priority 2022, published 2025)
